Laboratory results reported in EP1207391A1, “METHOD FOR SCREENING TARGETING DDS PREPARATION” (Ajinomoto Co., Inc., priority 1999, dated 2001).
Values joined by “and” are separate entries in the source; they are usually repeats but may differ in a detail not shown here. Equal entries are not always repeated. Where two headings read alike, the source gives them in different places.

Tests used:
[1] = target: T1, asialoglycoprotein receptor (Mus musculus, UniProt P24721+P34927); assay: Screening of ligand (1): bound 125I-ASOR after incubation of hepatocytes with unlabeled ligand (Example 17); format: cell-based; conditions: bound counts of 125I-ASOR after 10 minutes at 37°C with ligand at 100 - 2000 times of Kd; mean of 3
T1 construct: Mouse primary cultured hepatocytes, which were cultured for overnight on the 12 well plate, isolated by collagenase perfusion; endogenous in cells; host or cells: mouse (C57BL/6) primary hepatocytes cultured overnight on 12-well plates
T1 sequence (P34927 1-284): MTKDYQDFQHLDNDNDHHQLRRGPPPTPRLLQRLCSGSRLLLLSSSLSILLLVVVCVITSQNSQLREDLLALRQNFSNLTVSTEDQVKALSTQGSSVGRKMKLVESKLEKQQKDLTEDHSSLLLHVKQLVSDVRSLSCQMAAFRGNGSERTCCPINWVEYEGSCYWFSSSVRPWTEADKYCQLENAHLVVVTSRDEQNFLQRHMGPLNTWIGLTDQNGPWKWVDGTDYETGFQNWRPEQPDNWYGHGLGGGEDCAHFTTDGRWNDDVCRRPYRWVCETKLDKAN
T1 sequence (P24721 1-301): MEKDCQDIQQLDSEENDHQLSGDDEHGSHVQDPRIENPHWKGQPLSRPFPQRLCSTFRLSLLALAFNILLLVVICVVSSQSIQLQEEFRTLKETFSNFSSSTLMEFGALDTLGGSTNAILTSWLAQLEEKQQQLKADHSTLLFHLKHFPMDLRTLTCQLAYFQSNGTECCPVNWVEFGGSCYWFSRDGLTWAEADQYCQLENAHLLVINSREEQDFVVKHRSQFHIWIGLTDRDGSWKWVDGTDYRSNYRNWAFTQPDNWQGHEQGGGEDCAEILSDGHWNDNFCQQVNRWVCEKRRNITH
Method: A method for screening ligand having high ability to avoid the internalization without radio labeling each ligand and without calculation of kint and koff, was performed as follows.
Concretely, mouse primary cultured hepatocytes, which were isolated by a method of Berry et al. collagenase perfusion method shown in example and cultured overnight on 12 well plate, was washed twice with D-MEM (pH 7.4) (each 2 ml) containing D-PBS, 0.1% BSA and 20 mM Hepes. The same D-MEM medium (1 ml) was added thereto and preincubated at 37°C for 60 minutes. Cooled D-PBS (pH 5.0) containing 10 mM EDTA was added to the cells, allowed to stand under ice cooling for 4 minutes and washed twice with cooled D-PBS (2 ml). […] After 10 minutes, the plate was placed on the ice bath, added the cooled D-PBS (pH 5.0) containing 10 mM EDTA, allowed to stand under ice cooling for 4 minutes, and washed 4 times with cooled D-PBS (1 ml). D-MEM solution (0.4 ml) of 0.6 nM ^125I-ASOR was added to the cells in each well on the ice bath, and allowed to stand at 4°C for 60 minutes. On the ice bath, they were washed 4 times with cooled D-PBS (1 ml), allowed to stand at -80°C for more than 30 minutes, added 0.1 N sodium hydroxide (0.5 ml), and incubated at 37°C formore than 1 hour. Amount of receptor remained on the surface (ligand bound or free) other than the internalization by endocytosis was calculated by measuring the cell lysis with ã-counter (mean of 3 repeats).

[2] = target: T1, asialoglycoprotein receptor; assay: Screening of ligand (2): kint and koff without labeling the ligand (Example 18); format: cell-based; conditions: for kint: 37°C for 10 minutes, 125I-ASOR read-out
Method: A method for screening ligand having high ability to avoid the internalization without radio labeling each ligand to obtain kint and koff and to calculate simply the ability to avoid the internalization (= kint / koff) was performed as follows. […] Concretely, mouse primary cultured hepatocytes, which were isolated by the method of Berry et al. collagenase perfusion method shown in example and cultured overnight on 12 well plate, was washed twice with D-MEM (pH 7.4) (each 2 ml) containing D-PBS, 0.1% BSA and 20 mM Hepes. The same D-MEM medium (1 ml) was added thereto and preincubated at 37°C for 60 minutes. Cooled D-PBS (pH 5.0) containing 10 mM EDTA was added to the cells, allowed to stand under ice cooling for 4 minutes and washed twice with cooled D-PBS (2 ml). Using the thus prepared plate, experiments for calculating kint and koff were performed. […] Separately, the system without addition of the ligand was incubated for 0 minute and for 10 minutes at 37°C. After the necessary time has passed, immediately the plate was placed on the ice bath, added the cooled D-PBS (pH 5.0) containing 10 mM EDTA, allowed to stand under ice cooling for 4 minutes, and washed 4 times with cooled D-PBS (1 ml). D-MEM solution (0.4 ml) of 0.6 nM ^125I-ASOR was added to the cells in each well on the ice bath, and allowed to stand at 4°C for 60 minutes. […] Amount of receptor remained on the surface (ligand bound or free) other than the integration by endocytosis was calculated by measuring the cell lysis with ã-counter (mean of 3 repeats). The obtained amount of ratio activity was all divided by the concentration of the added solution (cpm/μl) to convert the distribution volume (μl/well). […] Separately, with regard to the system without ligand, only the said D-MEM medium is added 0.4 ml and incubated. […] The cell lytic solution was measured using γ-counter to calculate amount of the dissociated cold ligand once bound with the receptor. The amount of obtained radio activity is all divided by the concentration of the added solution (cpm/μl) and converted to the distribution volume (μl/well). With regards to the ligand non-added system and the ligand added system, the binding rate for 15 minutes is calculated by subtracting the distribution volume in the incubation for 5 minutes from the distribution volume in the incubation for 20 minutes. The binding rate without addition of the ligand is set as 100 and the binding rate of each ligand is converted into the percentage to the control (% of control).

[3] = target: T1, asialoglycoprotein receptor; assay: Binding inhibition experiment 2 of 125I-ASOR on mouse primary cultured hepatocytes (Example 9); conditions: read-out: Ki value, 0.6 nM 125I-ASOR, 4°C for 60 minutes
Method: In the binding inhibition experiment according to the method of Biessen, et al. performed in example 8, a concentration of added ^125I-ASOR was 22 nM. Kd value of ASOR is approximately several nM and the concentration of added ASOR is higher that the actual Kd value, consequently, in the experiment in example 8, the binding inhibition by each ligand is difficult to generate and the Kd value is estimated too high. In order to evaluate newly synthesized ligand[(Gal)3(6) and (Gal)2(9)], calculation of more exact Ki value is necessary.
Mouse primary cultured hepatocytes, which were cultured for overnight on the 12 well plate, isolated by collagenase perfusion described in examples of Berry, et al., were washed twice with D-MEM (pH 7.4) (each 2 ml) containing D-PBS, 0.1% BSA and 20 mM Hepes, added said D-MEM medium (1 ml), and preincubated at 37°C for 60 minutes. The cooled D-PBS (pH 5.0) containing 10 mM EDTA was added to the cells, allowed to stand under ice-cooling for 4 minutes, and washed twice with cooled D-PBS (2 ml). […] The cells were washed, on the ice bath, 4 times with cooled D-PBS (1 ml), allowed to leave at -80°C for more than 30 minutes, added 0.1 N aqueous sodium hydroxide (0.5 ml), incubated at 37°C for more than 1 hour, and measured the cell lytic solution by using γ-counter to calculate amount of bound ^125I-ASOR on the surface of cells. […]

[4] = target: T2, asialoglycoprotein receptor (ASGP-R) (Mus musculus, UniProt P24721+P34927); assay: Binding inhibition experiment of 125I-ASOR to mouse liver cells (Example 8, method of Biessen et al.); conditions: for Ki: 4°C
T2 construct: The liver parenchymal cells (in 4 ml Falcon tube, 0.6 - 1.0 × 10^6/0.5 ml in ice bath); endogenous in cells; host or cells: freshly isolated mouse liver parenchymal cells (C57BL/6) in suspension
T2 sequence (P34927 1-284): T1 sequence (P34927 1-284)
T2 sequence (P24721 1-301): T1 sequence (P24721 1-301)
Method: Among these ligands, we have first examined two types of ligands for asialoglycoprotein receptor on hepatocytes, i.e. the three-branched galactose ligand [(Gal)3] of the following formula: [drawing 5] and the three-branched N-acetylgalactosamine ligand [(GalNAc)3] of the following formula: [drawing 6] and their binding forms to IL-2. At first, the Kd value, which is an index of the binding affinity to ASGP-R, was calculated. Table 1,
Binding inhibition experiments of ASOR to mouse liver cells using each ligand were performed according to a method of Biessen, et al. [Biessen, E.A.L. et al., J. Biol. Chem., 271(45): 28024-28030 (1996)].
The liver parenchymal cells (in 4 ml Falcon tube, 0.6 - 1.0 × 10^6/0.5 ml in ice bath) was added to D-PBS containing 2% BSA. Inhibitor 0.25 ml prepared for various concentration with D-PBS containing 2% BSA was added thereto. ^125I-ASOR 0.25 ml (22 nM) in D-PBS containing 2% BSA was added therein and stirred gently at 4°C for 2 hours.
The mixture was centrifuged at 50G for 1 minute, discarded the supernatant solution, added D-PBS containing 2% BSA and stirred, then again centrifuged at 50G for 1 minute, and discarded the supernatant medium. This procedure was repeated again and the medium was measured by γ-counter.
Thereafter, 0.1 N NaOH containing 10% SDS 1 ml was added thereto, and the protein concentration was measured by Lowry method using the protein assay kit (Biorad Inc.).
As a result, depending on the increase in the added concentration of (GalNAc)3 and (Gal)3, […] was dissociated with almost monophasic manner. Data of dissociation obtained by three repeated experiments were analyzed using non-linear single site model to calculate the binding inhibition constant (Ki).
Large differences were observed between two types of the ligand.

| koff ([2]; unlabeled ligand, 4°C, 125I-ASOR binding rate for 15 minutes, read-out: koff (converted)) [s⁻¹] | Structure (SMILES) | Bound [1] [cpm] | kint ([2]; unlabeled ligand) [min⁻¹] | koff [2] [s⁻¹] | Ki [3] [µM] | affinity relative to (GalNAc)3 ([4]; ratio of affinities from Kd values) | Ki ([4]; read-out: Binding inhibitory constant (Ki) Ave., average of three repeated experiments, 125I-ASOR 22 nM) | Ki ([4]; read-out: Binding inhibitory constant (Ki), individual experiments 1-3, binding of 125I-ASOR (22 nM) to mouse hepatocytes) | Kd ([4]; read-out: Kd value, calculated from the Ki of Table 1) [µM] |
| --- | --- | --- | --- | --- | --- | --- | --- | --- | --- |
| 0.000395 | NCCCCCC(=O)N[C@@H](CCC(=O)NCCOCCOCCO[C@@H]1O[C@H](CO)[C@H](O)[C@H](O)[C@H]1O)C(=O)NCCOCCOCCO[C@@H]1O[C@H](CO)[C@H](O)[C@H](O)[C@H]1O (atropisomer, axis not shown) [(Gal)2(9)] | 1670 | 0.0605 | – | – | – | – | – | – |
| – | NCCCCCC(=O)NC(CCC(=O)NCCOCCO[C@@H]1O[C@H](CO)[C@H](O)[C@H](O)[C@H]1O)C(=O)NC(CCC(=O)NCCOCCO[C@@H]1O[C@H](CO)[C@H](O)[C@H](O)[C@H]1O)C(=O)NCCOCCO[C@@H]1O[C@H](CO)[C@H](O)[C@H](O)[C@H]1O (stereo partly drawn) [(Gal)3(6)] | 2015 | 0.0417 | 0.00113 | 0.369 | – | – | – | – |
| – | NCCCCCC(=O)NC(CCC(=O)NCCOCCOCCO[C@@H]1O[C@H](CO)[C@H](O)[C@H](O)[C@H]1O)C(=O)NC(CCC(=O)NCCOCCOCCO[C@@H]1O[C@H](CO)[C@H](O)[C@H](O)[C@H]1O)C(=O)NCCOCCOCCO[C@@H]1O[C@H](CO)[C@H](O)[C@H](O)[C@H]1O (stereo partly drawn) [(Gal)3, three-branched galactose ligand] | 1784 | 0.054 | 0.000943 | 0.157 | approximately 1/200 | 350 µM and 354 µM | 681 µM and 351 µM and 292 µM | 354 |
